Test results from patent US20200370087A1, “METHOD FOR DETERMINING MICROBIAL SUSCEPTIBILITY TO ANTIBIOTIC AGENTS” (Ascilion AB, priority 2017, published 2020).
Converted amounts (≈) assume the structure as drawn.

Columns and labels:
[1] = system: Escherichia coli (ATCC 25922); experiment: Glucose consumption susceptibility test, blood culture diluted in MHB with glucose (Example 1); assay type: cell-based; parameters: glucose concentration, t = 0 / glucose concentration, t = 60 / glucose concentration, t = 120 / glucose concentration, t = 180 / dC/dT (rate of change in glucose concentration) / glucose concentration, t = 240: unit not given here; details: for F = the rate of change in glucose concentration in relation to the reference / dC/dT (rate of change in glucose concentration) / glucose concentration, t = 0 / glucose concentration, t = 60 / glucose concentration, t = 120 / glucose concentration, t = 180 / glucose concentration, t = 240: E. coli; for glucose concentration, t = 0: 0 minutes; for glucose concentration, t = 60: 60 minutes; for glucose concentration, t = 120: 120 minutes; for glucose concentration, t = 180: 180 minutes; for glucose concentration, t = 240: 240 minutes
Procedure: (§1) Strains of Escherichia coli (ATCC 25922), Enterococcus faecalis (ATCC 29212) and Staphylococcus aureus (ATCC 29213) were inoculated in blood culture bottles (SVA, Uppsala, Sweden) and cultivated according to the manufacturer's instructions until positive.
(§2) Medium from each blood culture bottle was diluted 1:100 with cation adjusted Mueller-Hinton broth (SVA, Uppsala, Sweden) supplemented with glucose to a concentration of 1.0 mg/mL.
(§3) Glucose concentrations were measured at 0, 60, 120, 180, and 240 minutes using a WaveSense Jazz glucometer (AgaMatrix, Inc., Salem, N.H., USA) with accompanying test strips.
(§4) Susceptibility scores corresponding to MIC values were calculated as described above. A 80% threshold was applied, i.e. the lowest concentration of antibiotic that entailed a rate of change in glucose concentration that was equal to or less than 80% of the reference was selected as the Minimal Inhibitory Concentration. The rate of change was calculated between the measurements at 60 and 180 minutes.

[2] = system: Staphylococcus aureus (ATCC 29213); experiment: as above; assay type: cell-based; parameters: glucose concentration, t = 0 / glucose concentration, t = 60 / glucose concentration, t = 120 / glucose concentration, t = 180 / glucose concentration, t = 240 / dC/dT (rate of change in glucose concentration): unit not given here; details: for F = the rate of change in glucose concentration in relation to the reference / dC/dT (rate of change in glucose concentration) / glucose concentration, t = 0 / glucose concentration, t = 60 / glucose concentration, t = 120 / glucose concentration, t = 180 / glucose concentration, t = 240: S. aureus; for glucose concentration, t = 0: 0 minutes; for glucose concentration, t = 60: 60 minutes; for glucose concentration, t = 120: 120 minutes; for glucose concentration, t = 180: 180 minutes; for glucose concentration, t = 240: 240 minutes
Procedure: as §1, §2, §3, §4

[3] = system: Staphylococcus aureus ATCC 29213; details: S.aureus, cited from earlier work

MIC ([1]; Escherichia coli, ATCC25922, E.coli, 80% threshold of reference rate of change, 60 to 180 minutes, N/A = not susceptible, no MIC value can be calculated, read-out: MIC, Measured): 4 µg/mL (≈ 9.36 µM) | MIC ([2]; Staphylococcus aureus, ATCC29213, S.aureus, 80% threshold of reference rate of change, 60 to 180 minutes, read-out: MIC, Measured): 2 µg/mL (≈ 4.68 µM)
SMILES: CO[C@@]1(NC(=O)Cc2cccs2)C(=O)N2C(C(=O)O)=C(COC(N)=O)CS[C@@H]21 [Cefoxitin, cefoxitin]
F = the rate of change in glucose concentration in relation to the reference ([1]; antibiotic 0.25 μg/mL): 165% | dC/dT (rate of change in glucose concentration) ([1]; antibiotic 0.25 μg/mL): 102 | glucose concentration, t = 0 ([1]; antibiotic 0.25 μg/mL): 145 | glucose concentration, t = 60 ([1]; antibiotic 0.25 μg/mL): 157 | glucose concentration, t = 120 ([1]; antibiotic 0.25 μg/mL): 143 | glucose concentration, t = 180 ([1]; antibiotic 0.25 μg/mL): 41 | F = the rate of change in glucose concentration in relation to the reference ([1]; antibiotic 0.5 μg/mL): 139% | dC/dT (rate of change in glucose concentration) ([1]; antibiotic 0.5 μg/mL): 86 | glucose concentration, t = 0 ([1]; antibiotic 0.5 μg/mL): 139 | glucose concentration, t = 60 ([1]; antibiotic 0.5 μg/mL): 154 | glucose concentration, t = 120 ([1]; antibiotic 0.5 μg/mL): 140 | glucose concentration, t = 180 ([1]; antibiotic 0.5 μg/mL): 54 | F = the rate of change in glucose concentration in relation to the reference ([1]; antibiotic 1 μg/mL): 129% | dC/dT (rate of change in glucose concentration) ([1]; antibiotic 1 μg/mL): 80 | glucose concentration, t = 0 ([1]; antibiotic 1 μg/mL): 144 | glucose concentration, t = 60 ([1]; antibiotic 1 μg/mL): 150 | glucose concentration, t = 120 ([1]; antibiotic 1 μg/mL): 143 | glucose concentration, t = 180 ([1]; antibiotic 1 μg/mL): 63 | F = the rate of change in glucose concentration in relation to the reference ([1]; antibiotic 2 μg/mL): 102% | dC/dT (rate of change in glucose concentration) ([1]; antibiotic 2 μg/mL): 63 | glucose concentration, t = 0 ([1]; antibiotic 2 μg/mL): 143 | glucose concentration, t = 60 ([1]; antibiotic 2 μg/mL): 163 | glucose concentration, t = 120 ([1]; antibiotic 2 μg/mL): 138 | glucose concentration, t = 180 ([1]; antibiotic 2 μg/mL): 75 | F = the rate of change in glucose concentration in relation to the reference ([1]; antibiotic 4 μg/mL): 19% | dC/dT (rate of change in glucose concentration) ([1]; antibiotic 4 μg/mL): 12 | glucose concentration, t = 0 ([1]; antibiotic 4 μg/mL): 146 | glucose concentration, t = 60 ([1]; antibiotic 4 μg/mL): 149 | glucose concentration, t = 120 ([1]; antibiotic 4 μg/mL): 140 | glucose concentration, t = 180 ([1]; antibiotic 4 μg/mL): 125 | glucose concentration, t = 240 ([1]; antibiotic 4 μg/mL): 116 | F = the rate of change in glucose concentration in relation to the reference ([1]; antibiotic 8 μg/mL): 18% | dC/dT (rate of change in glucose concentration) ([1]; antibiotic 8 μg/mL): 11 | glucose concentration, t = 0 ([1]; antibiotic 8 μg/mL): 145 | glucose concentration, t = 60 ([1]; antibiotic 8 μg/mL): 164 | glucose concentration, t = 120 ([1]; antibiotic 8 μg/mL): 149 | glucose concentration, t = 180 ([1]; antibiotic 8 μg/mL): 132 | glucose concentration, t = 240 ([1]; antibiotic 8 μg/mL): 127 | F = the rate of change in glucose concentration in relation to the reference ([1]; antibiotic 16 μg/mL): 6% | dC/dT (rate of change in glucose concentration) ([1]; antibiotic 16 μg/mL): 4 | glucose concentration, t = 0 ([1]; antibiotic 16 μg/mL): 142 | glucose concentration, t = 60 ([1]; antibiotic 16 μg/mL): 152 | glucose concentration, t = 120 ([1]; antibiotic 16 μg/mL): 152 | glucose concentration, t = 180 ([1]; antibiotic 16 μg/mL): 141 | glucose concentration, t = 240 ([1]; antibiotic 16 μg/mL): 145 | F = the rate of change in glucose concentration in relation to the reference ([1]; antibiotic 32 μg/mL): 5% | dC/dT (rate of change in glucose concentration) ([1]; antibiotic 32 μg/mL): 3 | glucose concentration, t = 0 ([1]; antibiotic 32 μg/mL): 146 | glucose concentration, t = 60 ([1]; antibiotic 32 μg/mL): 150 | glucose concentration, t = 120 ([1]; antibiotic 32 μg/mL): 143 | glucose concentration, t = 180 ([1]; antibiotic 32 μg/mL): 142 | glucose concentration, t = 240 ([1]; antibiotic 32 μg/mL): 137 | F = the rate of change in glucose concentration in relation to the reference ([2]; antibiotic 0.25 μg/mL): 91% | dC/dT (rate of change in glucose concentration) ([2]; antibiotic 0.25 μg/mL): 31 | glucose concentration, t = 0 ([2]; antibiotic 0.25 μg/mL): 143 | glucose concentration, t = 60 ([2]; antibiotic 0.25 μg/mL): 152 | glucose concentration, t = 120 ([2]; antibiotic 0.25 μg/mL): 132 | glucose concentration, t = 180 ([2]; antibiotic 0.25 μg/mL): 91 | glucose concentration, t = 240 ([2]; antibiotic 0.25 μg/mL): 33 | F = the rate of change in glucose concentration in relation to the reference ([2]; antibiotic 0.5 μg/mL): 96% | dC/dT (rate of change in glucose concentration) ([2]; antibiotic 0.5 μg/mL): 32 | glucose concentration, t = 0 ([2]; antibiotic 0.5 μg/mL): 144 | glucose concentration, t = 60 ([2]; antibiotic 0.5 μg/mL): 155 | glucose concentration, t = 120 ([2]; antibiotic 0.5 μg/mL): 130 | glucose concentration, t = 180 ([2]; antibiotic 0.5 μg/mL): 91 | glucose concentration, t = 240 ([2]; antibiotic 0.5 μg/mL): 32 | F = the rate of change in glucose concentration in relation to the reference ([2]; antibiotic 1 μg/mL): 82% | dC/dT (rate of change in glucose concentration) ([2]; antibiotic 1 μg/mL): 28 | glucose concentration, t = 0 ([2]; antibiotic 1 μg/mL): 147 | glucose concentration, t = 60 ([2]; antibiotic 1 μg/mL): 155 | glucose concentration, t = 120 ([2]; antibiotic 1 μg/mL): 133 | glucose concentration, t = 180 ([2]; antibiotic 1 μg/mL): 100 | glucose concentration, t = 240 ([2]; antibiotic 1 μg/mL): 40 | F = the rate of change in glucose concentration in relation to the reference ([2]; antibiotic 2 μg/mL): 72% | dC/dT (rate of change in glucose concentration) ([2]; antibiotic 2 μg/mL): 24 | glucose concentration, t = 0 ([2]; antibiotic 2 μg/mL): 141 | glucose concentration, t = 60 ([2]; antibiotic 2 μg/mL): 146 | glucose concentration, t = 120 ([2]; antibiotic 2 μg/mL): 143 | glucose concentration, t = 180 ([2]; antibiotic 2 μg/mL): 98 | glucose concentration, t = 240 ([2]; antibiotic 2 μg/mL): 61 | F = the rate of change in glucose concentration in relation to the reference ([2]; antibiotic 4 μg/mL): 16% | dC/dT (rate of change in glucose concentration) ([2]; antibiotic 4 μg/mL): 6 | glucose concentration, t = 0 ([2]; antibiotic 4 μg/mL): 142 | glucose concentration, t = 60 ([2]; antibiotic 4 μg/mL): 150 | glucose concentration, t = 120 ([2]; antibiotic 4 μg/mL): 143 | glucose concentration, t = 180 ([2]; antibiotic 4 μg/mL): 139 | glucose concentration, t = 240 ([2]; antibiotic 4 μg/mL): 139 | F = the rate of change in glucose concentration in relation to the reference ([2]; antibiotic 8 μg/mL): 24% | dC/dT (rate of change in glucose concentration) ([2]; antibiotic 8 μg/mL): 8 | glucose concentration, t = 0 ([2]; antibiotic 8 μg/mL): 136 | glucose concentration, t = 60 ([2]; antibiotic 8 μg/mL): 157 | glucose concentration, t = 120 ([2]; antibiotic 8 μg/mL): 160 | glucose concentration, t = 180 ([2]; antibiotic 8 μg/mL): 141 | glucose concentration, t = 240 ([2]; antibiotic 8 μg/mL): 149 | F = the rate of change in glucose concentration in relation to the reference ([2]; antibiotic 16 μg/mL): 22% | dC/dT (rate of change in glucose concentration) ([2]; antibiotic 16 μg/mL): 8 | glucose concentration, t = 0 ([2]; antibiotic 16 μg/mL): 140 | glucose concentration, t = 60 ([2]; antibiotic 16 μg/mL): 157 | glucose concentration, t = 120 ([2]; antibiotic 16 μg/mL): 152 | glucose concentration, t = 180 ([2]; antibiotic 16 μg/mL): 142 | glucose concentration, t = 240 ([2]; antibiotic 16 μg/mL): 142 | F = the rate of change in glucose concentration in relation to the reference ([2]; antibiotic 32 μg/mL): 27% | dC/dT (rate of change in glucose concentration) ([2]; antibiotic 32 μg/mL): 9 | glucose concentration, t = 0 ([2]; antibiotic 32 μg/mL): 145 | glucose concentration, t = 60 ([2]; antibiotic 32 μg/mL): 154 | glucose concentration, t = 120 ([2]; antibiotic 32 μg/mL): 145 | glucose concentration, t = 180 ([2]; antibiotic 32 μg/mL): 136 | glucose concentration, t = 240 ([2]; antibiotic 32 μg/mL): 139 | MIC, EUCAST, range in parentheses ([3]; range obtained by EUCAST from ISO 20776-1: 2006): (1-4) ug/mL | MIC, EUCAST ([3]; reference value, Mueller-Hinton agar, incubation 18±2 h): 2 µg/mL (≈ 4.68 µM)
